# Assay results from article PMC3279297 (Bioorganic & medicinal chemistry, 2011).
# Legend:
# Assay type in all cases: biochemical
# [1] = target: DENV2 NS2B-NS3 protease (Dengue virus type 2, UniProt P14340); assay: In vitro DENV2 NS2B-NS3pro inhibition assay; conditions: compound 25 μM, protease 25 nM, absence of detergent (Figure 2)
# [2] = target: DENV2 NS2B-NS3pro (Dengue virus type 2, UniProt P14340); assay: Steady-state kinetics of 7n against DENV2 NS2B-NS3pro; conditions: 0.025 μM protease
# [3] = target: WNV NS2B-NS3pro (West Nile virus, UniProt Q9Q6P4); assay: In vitro WNV NS2B-NS3pro inhibition assay; conditions: compound 25 μM, protease 28 nM, 0.1% CHAPS (Figure 3)
# Sequence of WNV NS2B-NS3pro (Q9Q6P4 1506-1683): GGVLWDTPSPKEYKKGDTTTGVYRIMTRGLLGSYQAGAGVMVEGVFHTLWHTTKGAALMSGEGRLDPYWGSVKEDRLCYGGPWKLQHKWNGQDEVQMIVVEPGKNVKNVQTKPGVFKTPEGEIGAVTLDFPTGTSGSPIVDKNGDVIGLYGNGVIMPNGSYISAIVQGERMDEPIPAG
# Sequence of WNV NS2B-NS3pro (Q9Q6P4 1428-1467): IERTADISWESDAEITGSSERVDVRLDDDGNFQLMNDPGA
# Sequence of DENV2 NS2B-NS3pro (P14340 1476-1653): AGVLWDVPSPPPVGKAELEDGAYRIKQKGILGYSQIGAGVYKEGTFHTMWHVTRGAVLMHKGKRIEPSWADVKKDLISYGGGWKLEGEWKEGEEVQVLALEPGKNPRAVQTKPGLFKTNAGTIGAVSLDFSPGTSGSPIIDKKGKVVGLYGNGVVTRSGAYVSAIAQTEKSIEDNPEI
# Sequence of DENV2 NS2B-NS3pro (P14340 1398-1437): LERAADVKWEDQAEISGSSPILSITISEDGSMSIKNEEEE
# Sequence of DENV2 NS2B-NS3 protease (P14340 1476-1653): as the sequence (P14340 1476-1653) above
# Sequence of DENV2 NS2B-NS3 protease (P14340 1398-1437): as the sequence (P14340 1398-1437) above
Compound,inhibitory activity toward DENV NS2B-NS3pro (in words) [1],Vmax ([2]; inhibitor [7n] 1 μM) [µM/min],Vmax ([2]; inhibitor [7n] 2 μM) [µM/min],Vmax ([2]; inhibitor [7n] 5 μM) [µM/min],inhibitory activity toward WNV NS2B-NS3pro (in words) [3]
"Methyl 4-((4-((3-(2-(3-oxobenzo[d]isothiazol-2(3H)-yl)acetamido)phenoxy)methyl)-1H-1,2,3-triazol-1-yl)methyl)benzoate [Compound 7e]",noteworthy inhibitory activity,,,,
"O=C(Cn1sc2ccccc2c1=O)Nc1cccc(OCc2cn(CC(=O)Nc3ccccc3Oc3ccccc3)nn2)c1 [Compound 7n, N-(3-((1-(2-Oxo-2-(2-phenoxyphenylamino)ethyl)-1H-1,2,3-triazol-4-yl)methoxy)phenyl)-2-(3-oxobenzo[d]isothiazol-2(3H)-yl)acetamide]",,0.1006 ± 0.0029,0.0978 ± 0.0020,0.0994 ± 0.0010,
"O=C(Cn1sc2ccccc2c1=O)NCc1cn(CC(=O)Nc2ccc(Oc3ccccc3)cc2)nn1 [Compound 4l, N-((1-(2-Oxo-2-(4-phenoxyphenylamino)ethyl)-1H-1,2,3-triazol-4-yl)methyl)-2-(3-oxobenzo[d]isothiazol-2(3H)-yl)acetamide]",noteworthy inhibitory activity,,,,weak inhibitory activity
